Tests used:
[1] = target: T1, acetylcholinesterase (AChE) (Rattus norvegicus, UniProt P37136); assay: In vitro inhibition of AChE (cholinesterase assay, Ellman method); assay type: biochemical
T1 construct: from tissue; host or cells: rat brain cortex
T1 sequence (P37136 32-614): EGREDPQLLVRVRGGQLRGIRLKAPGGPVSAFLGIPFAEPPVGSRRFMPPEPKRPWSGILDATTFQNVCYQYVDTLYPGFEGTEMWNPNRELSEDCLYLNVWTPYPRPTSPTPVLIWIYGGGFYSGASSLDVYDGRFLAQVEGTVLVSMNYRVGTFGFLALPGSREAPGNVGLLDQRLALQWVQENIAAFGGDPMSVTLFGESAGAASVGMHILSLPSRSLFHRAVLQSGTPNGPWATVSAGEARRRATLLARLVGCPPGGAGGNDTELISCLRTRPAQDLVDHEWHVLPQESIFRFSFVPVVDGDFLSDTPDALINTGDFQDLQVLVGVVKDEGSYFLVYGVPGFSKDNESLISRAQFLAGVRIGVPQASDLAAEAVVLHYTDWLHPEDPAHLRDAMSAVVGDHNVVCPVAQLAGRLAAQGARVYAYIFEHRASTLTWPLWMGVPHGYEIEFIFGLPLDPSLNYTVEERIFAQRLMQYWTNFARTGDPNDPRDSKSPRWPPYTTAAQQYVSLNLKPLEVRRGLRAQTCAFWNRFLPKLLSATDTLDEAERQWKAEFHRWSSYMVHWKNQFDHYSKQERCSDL
Method: The in vitro inhibition of the enzymes acetylcholinesterase (AChE) and butyrylcholinesterase (BChE) were assessed. BChE, like AChE, breaks down acetylcholine (ACh) but is found in plasma and other organs such as the liver, skin and gastrointestinal tract.
The enzymes, AChE and BChE, used in the inhibition studies were prepared from the cortex and serum of decapitated rats, respectively.

[2] = target: T2, NMDA receptor (Rattus norvegicus, UniProt P35439); assay: Whole cell patch clamp, NMDA-induced current in hippocampal neurons; assay type: cell-based; settings: DIV10-14 rat hippocampal neurons, NMDA 50 μM, compound 10 μg/mL; FIG. 1
T2 construct: Hippocampal neurons from embryonic day 18 rats were isolated, trypsinized, plated onto 35-mm plates; endogenous in cells; host or cells: primary hippocampal neurons from embryonic day 18 rats, DIV10-14
Method: The NMDA receptor is a gated ion channel, which allows inflow of current during a nerve impulse. Antagonists to the receptor would prevent the inflow of current. Memantine, a known NMDA antagonist was used as the positive control.
Hippocampal neurons from embryonic day 18 rats were isolated, trypsinized, plated onto 35-mm plates at a density of 3×10^4 cells/plate and cultured in Neurobasal medium (NB) supplemented with B27 nutrient. DIV10-14 rat hippocampal neurons were treated with NMDA (50 μM) in the absence or presence of the novel compounds (Cpd A, B and C) (10 μg/mL). Data is presented as % of NMDA-induced current. DMSO is the solvent control.

[3] = tested on: transient focal ischemia; assay: MCAO (middle carotid artery occlusion model), transient focal ischemia; assay type: in vivo, mice
Method: The MCAO (middle carotid artery occlusion model) was performed to investigate the protective effects of compounds A, B and C on the brain when the brain was exposed to transient focal ischemia (lack of oxygen), emulating brain conditions during a stroke. […] The ability of the novel compounds to protect against the appearance of these neurological deficits was examined using a four-point scale neurological scoring system (Mann Whitney U test). For each of the following observable signs, the distribution of test subjects was noted (with and without treatment with the invention after ischemia): (0) no observable neurological deficits (normal); (1) failure to extend the left forepaw fully (mild); (2) circling to the contralateral side (moderate); and (3) loss of walking and righting reflex (severe). • (ii) The brains of the test subjects slices were sectioned into five pieces and the infarct area and volume of each slice was measured. The % of infarct area in test subjects treated with the invention after ischemia was compared to that of the control group for each brain slice. • (iii) Hemispheric brain swelling and infarct volume (the area of dead tissue caused by inadequate blood supply) was measured for test subjects treated with the invention after ischemia, and compared to that of the control group.
The compounds were administered 5 minutes after ischemia, 5 minutes after reperfusion, or 6 hours after ischemia. FIGS. 5a to 5f show results for the heterodimers compound B, C or A respectively, when administered 5 minutes after ischemia or reperfusion. FIGS. 5g and 5h show the results when the novel heterodimers were administered 6 hours after ischemia.
Compound B was administered at 5 minutes after ischemia. Distribution of neurological scores based on a four-point scale neurological scoring system (Mann Whitney U test): (0) no observable neurological deficits (normal); (1) failure to extend the left forepaw fully (mild); (2) circling to the contralateral side (moderate); and (3) loss of walking and righting reflex (severe).
The brain was sectioned into five pieces, each 2-mm thick. The infarct area of each posterior surface was analyzed by an image analysis program. The percentage of infarct area and volume were calculated and presented as the percentage of the infarct area of the contralateral hemisphere to eliminate the contribution of edema to the ischemic lesion.
The infarct area of each posterior surface was analyzed by an image analysis program. Hemispheric brain swelling was calculated as follows (ipsilateral volume−contralateral volume)/contralateral volume×100%.

[4] = 0.005 μg/kg, 5 minutes after reperfusion
[5] = 0.005 μg/kg, 6 hours after ischemia
[6] = 0.05 μg/kg, 5 minutes after reperfusion
[7] = 0.05 μg/kg, 6 hours after ischemia

With `O=c1ccc2c([nH]1)CCCC2NCCCCCCCCNc1c2c(nc3cc(Cl)ccc13)CCCC2` (stereo not drawn) [Compound C] the “times more potent than bis(7)-tacrine” value ([1]; AChE inhibition) was ~1039, the “times more potent than tacrine” value ([1]; AChE inhibition) was ~11000 and the “Selectivity AchE*” value ([1]; IC50 (BChE)/IC50 (AChE)) was 50317.32. For the same molecule, the IC50 ([1]; enzyme prepared from rat cortex) was 0.0127 ± 0.002 nM, the NMDA-induced current [2] was “decreased NMDA-induced current in hippocampal neurons” and the “% Infarct area in brain slice # 1” value [3, 4] was 18.8 ± 3.3%. For the same molecule, the “% Infarct area in brain slice # 2” value [3, 4] was 47.8 ± 3.0%, the “% Infarct area in brain slice # 3” value [3, 4] was 45.4 ± 1.8% and the “% Infarct area in brain slice # 4” value [3, 4] was 18.5 ± 3.8 %. The “% Infarct area in brain slice # 5” value [3, 4] was 0.6 ± 0.5%, the “Hemispheric swelling (%)” value [3, 4] was 7.1 ± 1.0 % and the “Infarct volume (%)” value [3, 4] was 30.1 ± 1.5 %. The “Observed Neurological Deficits Mean ± SEM” value [3, 4] was 1.0 ± 0.0, the “Observed Neurological Deficits, score 0 (number of animals)” value [3, 4] was 0 and the “Observed Neurological Deficits, score 1 (number of animals)” value [3, 4] was 9. For the same molecule, the “Observed Neurological Deficits, score 2 (number of animals)” value [3, 4] was 0, the “Observed Neurological Deficits, score 3 (number of animals)” value [3, 4] was 0 and the “n (dead/total): dead/total” value [3, 4] was 9 (1/10). For the same molecule, the “% Infarct area in brain slice # 1” value [3, 5] was 15.9 ± 4.0%, the “% Infarct area in brain slice # 2” value [3, 5] was 40.2 ± 7.9% and the “% Infarct area in brain slice # 3” value [3, 5] was 35.5 ± 5.3 %. For the same molecule, the “% Infarct area in brain slice # 4” value [3, 5] was 12.5 ± 4.9 %, the “% Infarct area in brain slice # 5” value [3, 5] was −0.8 ± 0.8% and the “Hemispheric swelling (%)” value [3, 5] was 6.2 ± 1.2%. The “Infarct volume (%)” value [3, 5] was 23.9 ± 4.3 %, the “Observed Neurological Deficits Mean ± SEM” value [3, 5] was 1.3 ± 0.2 and the “Observed Neurological Deficits, score 0 (number of animals)” value [3, 5] was 0. The “Observed Neurological Deficits, score 1 (number of animals)” value [3, 5] was 6, the “Observed Neurological Deficits, score 2 (number of animals)” value [3, 5] was 2 and the “Observed Neurological Deficits, score 3 (number of animals)” value [3, 5] was 0. For the same molecule, the “n (dead/total): dead/total” value [3, 5] was 8 (1/9), the “% Infarct area in brain slice # 1” value [3, 6] was 12.8 ± 3.3% and the “% Infarct area in brain slice # 2” value [3, 6] was 54.0 ± 4.1%. The “% Infarct area in brain slice # 3” value [3, 6] was 51.4 ± 3.1%, the “% Infarct area in brain slice # 4” value [3, 6] was 26.2 ± 6.7% and the “% Infarct area in brain slice # 5” value [3, 6] was −1.0 ± 0.8%. The “Hemispheric swelling (%)” value [3, 6] was 7.4 ± 1.0 %, the “Infarct volume (%)” value [3, 6] was 34.5 ± 3.7% and the “Observed Neurological Deficits Mean ± SEM” value [3, 6] was 1.3 ± 0.2. The “Observed Neurological Deficits, score 0 (number of animals)” value [3, 6] was 0, the “Observed Neurological Deficits, score 1 (number of animals)” value [3, 6] was 4 and the “Observed Neurological Deficits, score 2 (number of animals)” value [3, 6] was 2. The “Observed Neurological Deficits, score 3 (number of animals)” value [3, 6] was 0, the “n (dead/total): dead/total” value [3, 6] was 6 (1/7) and the “% Infarct area in brain slice # 1” value [3, 7] was 11.7 ± 3.3%. For the same molecule, the “% Infarct area in brain slice # 2” value [3, 7] was 38.0 ± 6.8 %, the “% Infarct area in brain slice # 3” value [3, 7] was 32.5 ± 6.6 % and the “% Infarct area in brain slice # 4” value [3, 7] was 16.8 ± 6.0%. The “% Infarct area in brain slice # 5” value [3, 7] was 0.5 ± 0.4%, the “Hemispheric swelling (%)” value [3, 7] was 5.0 ± 1.2% and the “Infarct volume (%)” value [3, 7] was 23.5 ± 4.4 %. For the same molecule, the “Observed Neurological Deficits Mean ± SEM” value [3, 7] was 1.3 ± 0.2, the “Observed Neurological Deficits, score 0 (number of animals)” value [3, 7] was 0 and the “Observed Neurological Deficits, score 1 (number of animals)” value [3, 7] was 6. The “Observed Neurological Deficits, score 2 (number of animals)” value [3, 7] was 2, the “Observed Neurological Deficits, score 3 (number of animals)” value [3, 7] was 0 and the “n (dead/total): dead/total” value [3, 7] was 8 (1/9). For the same molecule, the “infarct area in brain slices (in words)” value ([3]; 5 minutes after reperfusion, FIG. 5c) was “reduction in infarct area of brain slices #4”, the “infarct size and hemispheric swelling (in words)” value ([3]; 5 minutes after reperfusion, FIG. 5d) was “reduced infarct size and hemispheric swelling” and the “infarct area (in words)” value ([3]; 6 hours after ischemia, FIG. 5g) was “improvement in the infarct area”. The “infarct volume (in words)” value ([3]; 6 hours after ischemia, FIG. 5h) was “decreases infarct volume”, the “neurological deficits induced by ischemia (in words)” value ([3]; administered 5 minutes after reperfusion) was “reduced neurological deficits induced by ischemia” and the “neurological deficits (in words)” value ([3]; administration 6 hours after ischemia) was “reduced neurological deficits”.

— patent US7605265B2, “Heterodimers and methods of using them” (priority 2007, dated 2009)
